{"source": "patent US9622995B2", "about": "“Treatment of disorders associated with G protein-coupled receptor 35 (GPR35)” (TEMPLE UNIVERSITY—OF THE COMMONWEALTH SYSTEM OF HIGHER …, priority 2009, dated 2017)", "data": [{"biological_target": "T1, GPR35a (Homo sapiens, UniProt Q9HC97, S294R)", "T1 sequence (Q9HC97 whole entry S294R)": "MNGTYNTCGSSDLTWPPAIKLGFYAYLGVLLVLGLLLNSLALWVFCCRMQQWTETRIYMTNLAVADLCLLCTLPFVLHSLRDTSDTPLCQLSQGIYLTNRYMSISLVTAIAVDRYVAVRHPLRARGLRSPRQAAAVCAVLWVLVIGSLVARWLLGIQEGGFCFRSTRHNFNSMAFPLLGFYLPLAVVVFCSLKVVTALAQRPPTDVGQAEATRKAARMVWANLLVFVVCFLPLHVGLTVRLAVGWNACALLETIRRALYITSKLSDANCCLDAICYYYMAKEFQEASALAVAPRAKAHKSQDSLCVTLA", "assay": "not given", "details": "3 μM; data not shown", "values": [{"molecule": "N#CC(=C(N)Sc1ccccc1N)C(C#N)=C(N)Sc1ccccc1N", "note": "[Compound U0126, 1,4-diamino-2,3-dicyano-1,4-bis(2-aminophenylthio)-butadiene]", "effect on ERK1/2 activation": "inhibited ERK1/2 activation", "effect on pamoic acid-induced ERK activation": "abolished pamoic acid-induced ERK activation"}]}, {"biological_target": "GPR35 (Homo sapiens, UniProt Q9HC97, S294R)", "sequence (Q9HC97 whole entry S294R)": "as above", "assay": "not given", "details": "UGPR35β cells", "values": [{"molecule": "pyrantel tartrate", "activity in GPR35 internalization assay, in words": "inactive"}]}, {"biological_target": "GPR35 (Homo sapiens, UniProt Q9HC97, S294R)", "assay": "not given", "details": "UGPR35β cells, On-Cell Western; log(EC50)", "values": [{"molecule": "oxantel pamoate [Compound 2]", "log EC50 of GPR35 internalization": "−7.772"}]}, {"biological_target": "GPR35 (Homo sapiens, UniProt Q9HC97, S294R)", "assay": "not given", "details": "read-out: EC50 of GPR35 internalization; UGPR35β cells, On-Cell Western; corresponds to the log EC50", "units": {"EC50": "nM"}, "values": [{"molecule": "oxantel pamoate [Compound 2]", "EC50": 17}]}, {"biological_target": "T1, GPR35a", "assay": "β-arrestin2-GFP redistribution/aggregation in UGPR35β cells", "type": "cell-based", "parameters": "expressed in transfected cells", "details": "compared with the binaphthyl compounds", "from_the_text": "(§1) This cellular assay utilizes the intracellular β-arrestin protein as a reporter of receptor activity. […] Upon agonist-mediated GPCR activation, β-arrestins rapidly redistribute en masse to ligand-activated plasma membrane receptors (on the other hand, β-arrestins remain in the cytosol upon antagonist binding to the receptor). Activated GPCR/β-arrestin complexes will concentrate in clathrin-coated pits and/or internal vesicles where most GPCRs normally undergo internalization. At this juncture, the β-arrestin either (i) dissociates and returns to the cytoplasm, or (ii) further redistributes with the receptor into an intracellular endosomal vesicle, depending on the receptor type. It is the agonist-induced redistribution of β-arrestin-GFP into progressively smaller compartments (cytosolic compartment>plasma membrane>coated pit>endosomal compartment) that enables imaging of receptor activation.\n(§2) This cell line is herein referred to as UGPR35β. Selected cells were maintained at 200 μg/ml G418® and 100 μg/ml Zeocin® at 37° C. and 5% CO2.\n(§3) U20S cells expressing HA-GPR35a/βarr2-GFP (also known as UGPR35β cells) were plated in a 24-well plate onto coverslips that were coated with poly-D-lysine (0.02 mg/ml; Sigma-Aldrich, St. Louis, Mo., USA) for 1 hour. Cells were maintained at 37° C., 5% CO2 until ready for experiment (90% confluent). Cells were washed once with Hanks' balanced salt solution (HBSS, Cellgro, Mediatech, Inc, Manassas, Va., USA) comprising CaCl2 0.14 g/L, KCl 0.4 g/L, KH2PO4 0.06 g/L, MgSO4 0.097 g/L, NaCl 8 g/L, Na2HPO4 0.047 g/L, NaHCO3 0.35 g/L, and D-glucose 1.0 g/L. For receptor activation, agonist-evoked redistribution of βarr2-GFP was measured by applying the drug for 40 minutes. For measuring the effects of antagonist, agonist and antagonist were co-applied.\n(§4) Cells were then fixed with 4% paraformaldehyde for 20 minutes at room temperature, followed by three washes with HBSS.\n(§5) βarr2-GFP aggregates were identified by a wavelet-based, Microsoft Windows-compatible computer program written in the MatLab programming environment. A program algorithm extracts from two dimensional images those pixels that generate objects of interest that fall within a predetermined range of sizes and intensities and that are embedded among widely varying local backgrounds (L. Barak, available from the Duke University GPCR Assay Bank). Concentration-effect curves for agonist-mediated receptor activation were analyzed by non-linear regression techniques using GraphPad Prism 4.0 software (GraphPad) and data were fitted to sigmoidal dose-response curves to obtain EC50 or IC50 values. Statistical analysis was performed using one-way analysis of variance (ANOVA) followed by Dunnett's post-test or two-tailed unpaired student t test. P values of <0.05 are considered significant.\n(§6) A prototypical U2OS osteosarcoma cell line that permanently expresses β-arrestin-GFP and N-terminal triple HA-tagged human GPR35a was used to screen ligands for agonism or antagonism against the GPR35 receptor. […] Endogenous receptors are invisible to the assay because there are too few endogenous receptors of any type compared to the number of β-arrestin molecules in the cell to provide a measurable response.\n(§7) Upon agonist-mediated GPCR activation, β-arrestins rapidly redistribute en masse to ligand-activated plasma membrane receptors, and then the activated GPCR/arrestin complexes concentrate in clathrincoated pits and/or internal vesicles.\n(§8) Concentration response curves for β-arrestin2 aggregation were obtained for compounds of interest. For this study, UGPR35β cells were treated with different concentrations of a compound of interest and images of the cells (acquired in triplicate in three or more independent experiments) were analyzed for fluorescence.", "values": [{"molecule": "O=C(O)c1cc2ccccc2cc1O", "note": "[Compound 8, 3-hydroxy-2-naphthoic acid]", "potency as GPR35 agonist, in words": "much less potent"}, {"molecule": "O=C(O)c1cc2cc(Br)ccc2cc1O", "note": "[Compound 7, 7-bromo-3-hydroxy-2-naphthoic acid]", "potency as GPR35 agonist, in words": "much less potent"}]}, {"biological_target": "T1, GPR35a", "assay": "β-arrestin2-GFP redistribution/aggregation in UGPR35β cells", "type": "cell-based", "parameters": "expressed in transfected cells", "details": "concentration response analysis, read-out: β-arrestin response (EC50)", "from_the_text": "as §1, §2, §3, §4, §5, §6, §7, §8", "units": {"EC50": "nM"}, "values": [{"molecule": "O=C(O)c1cc2ccccc2cc1O", "note": "[Compound 8, 3-hydroxy-2-naphthoic acid]", "EC50": 86000}, {"molecule": "O=C(O)c1cc2cc(Br)ccc2c(Cc2c(O)c(C(=O)O)cc3cc(Br)ccc23)c1O", "note": "[Compound 3, 7,7′-dibromo-pamoic acid]", "EC50": 169}, {"molecule": "O=C(O)c1cc2ccccc2c(-c2c(O)c(C(=O)O)cc3ccccc23)c1O", "note": "[Compound 4, 1,1′-binaphthyl-2,2′-diol-3,3′-dicarboxylic acid]", "EC50": 286}, {"molecule": "oxantel pamoate [Compound 2]", "EC50": 91}, {"molecule": "O=C(O)c1cc2cc(Br)ccc2cc1O", "note": "[Compound 7, 7-bromo-3-hydroxy-2-naphthoic acid]", "EC50": 6900}]}, {"biological_target": "T1, GPR35a", "assay": "β-arrestin2-GFP redistribution/aggregation in UGPR35β cells", "type": "cell-based", "parameters": "expressed in transfected cells", "details": "concentrations up to 30 μM", "from_the_text": "as §1, §2, §3, §4, §5, §6, §7, §8", "values": [{"molecule": "Cc1c(/C=C/C2CCCCC2)nn(-c2ccc(Cl)cc2Cl)c1-c1ccc(Cl)cc1", "note": "[VCHSR1, 5-(4-chlorophenyl)-3-[(E)-2-cyclohexylethenyl]-1-(2,4-dichlorophenyl)-4-methyl-1H-pyrazole]", "activation of GPR35 (distribution of βarr2-GFP different from basal state)": "None of the compounds at concentrations up to 30 μM activated GPR35"}, {"molecule": "CCCn1c(C)c(C(=O)c2cccc3ccccc23)c2ccccc21", "note": "[JWH-015, (2-methyl-1-propyl-1H-indol-3-yl)-1-naphthalenylmethanone]", "activation of GPR35 (distribution of βarr2-GFP different from basal state)": "None of the compounds at concentrations up to 30 μM activated GPR35"}, {"molecule": "C=C(C)[C@@H]1CCC(C)=C[C@H]1c1c(O)cc(CCCCC)cc1O", "note": "[cannabidiol]", "activation of GPR35 (distribution of βarr2-GFP different from basal state)": "None of the compounds at concentrations up to 30 μM activated GPR35"}, {"molecule": "CCCCCCC(C)(C)c1cc(O)c2c(c1)OC(C)(C)[C@@H]1CC=C(CO)C[C@@H]21", "note": "[HU-210, (6aR,10aR)-9-(hydroxymethyl)-6,6-dimethyl-3-(2-methyloctan-2-yl)-6a,7,10,10a-tetrahydrobenzo[c]chromen-1-ol]", "activation of GPR35 (distribution of βarr2-GFP different from basal state)": "None of the compounds at concentrations up to 30 μM activated GPR35"}, {"molecule": "lysophosphatidic acid", "activation of GPR35 (distribution of βarr2-GFP different from basal state)": "None of the compounds at concentrations up to 30 μM activated GPR35"}, {"molecule": "Cc1c(/C=N/N2CCCCC2)nn(-c2ccc(Cl)cc2Cl)c1-c1ccc(Cl)cc1", "note": "[PIMSR1, 5-(4-chlorophenyl)-1-(2,4-dichlorophenyl)-4-methyl-3-[(E)-piperidinoiminomethyl]-1H-pyrazole]", "activation of GPR35 (distribution of βarr2-GFP different from basal state)": "None of the compounds at concentrations up to 30 μM activated GPR35"}, {"molecule": "CCCCCc1cc(O)c2c(c1)OC(C)(C)c1ccc(C)cc1-2", "note": "[cannabinol]", "activation of GPR35 (distribution of βarr2-GFP different from basal state)": "None of the compounds at concentrations up to 30 μM activated GPR35"}, {"molecule": "C=C(C)[C@@H]1CCC(C)=C[C@H]1c1c(C)cc(O)cc1O", "note": "[Compound O-1602, 5-methyl-4-[(1R,6R)-3-methyl-6-(1-methyethenyl)-2-cyclohexen-1-yl]-1,3-benzenediol]", "activation of GPR35 (distribution of βarr2-GFP different from basal state)": "None of the compounds at concentrations up to 30 μM activated GPR35"}, {"molecule": "CCCCC/C=C\\C/C=C\\C/C=C\\C/C=C\\CCCC(=O)NCCO", "note": "[anandamide]", "activation of GPR35 (distribution of βarr2-GFP different from basal state)": "None of the compounds at concentrations up to 30 μM activated GPR35"}, {"molecule": "lysophosphatidylinositol", "activation of GPR35 (distribution of βarr2-GFP different from basal state)": "None of the compounds at concentrations up to 30 μM activated GPR35"}, {"molecule": "CCCCCCC(C)(C)c1ccc([C@@H]2C[C@H](O)CC[C@H]2CCCO)c(O)c1", "note": "[CP55,940, 2-[(1R,2R,5R)-5-hydroxy-2-(3-hydroxypropyl)cyclohexyl]-5-(2-methyloctan-2-yl)phenol]", "activation of GPR35 (distribution of βarr2-GFP different from basal state)": "None of the compounds at concentrations up to 30 μM activated GPR35"}, {"molecule": "5-(4-chloro-3-methylphenyl-1-[(4-methylphenyl)methyl]-N-[(1S,2S,4R)-1,3,3-trimethylbicyclo[2.2.1]hept-2-yl]-1H-pyrazole-3-carboxamide [SR144528]", "activation of GPR35 (distribution of βarr2-GFP different from basal state)": "None of the compounds at concentrations up to 30 μM activated GPR35"}, {"molecule": "CCCCCc1cc(O)c2c(c1)OC(C)(C)[C@@H]1CCC(C)=C[C@@H]21", "note": "[delta-9-tetrahydrocannabinol]", "activation of GPR35 (distribution of βarr2-GFP different from basal state)": "None of the compounds at concentrations up to 30 μM activated GPR35"}, {"molecule": "Cc1c(C(=O)c2cccc3ccccc23)c2cccc3c2n1[C@H](CN1CCOCC1)CO3", "note": "[WIN55212-2, (R)-(+)-[2,3-dihydro-5-methyl-3-(4-morpholinylmethyl)pyrrolo[1,2,3-de)-1,4-benzoxazin-6-yl]-1-napthalenylmethanone]", "activation of GPR35 (distribution of βarr2-GFP different from basal state)": "None of the compounds at concentrations up to 30 μM activated GPR35"}, {"molecule": "CCCCCCC(C)(C)c1cc(O)c2c(c1)OC(C)(C)C1CCC(C)CC21", "note": "(stereo not shown) [AM4056, 1-hydroxy-1′,1′-dimethylheptylhexahydrocannabinol]", "activation of GPR35 (distribution of βarr2-GFP different from basal state)": "None of the compounds at concentrations up to 30 μM activated GPR35"}]}, {"biological_target": "T1, GPR35a", "assay": "β-arrestin2-GFP redistribution/aggregation in UGPR35β cells", "type": "cell-based", "parameters": "expressed in transfected cells", "details": "mean (95% confidence interval in brackets in the text), read-out: EC50 for β-arrestin2 aggregation", "from_the_text": "as §1, §2, §3, §4, §5, §6, §7, §8", "units": {"EC50": "nM"}, "values": [{"molecule": "O=C(O)c1cc([N+](=O)[O-])ccc1NCCCc1ccccc1", "note": "[Compound 6, 5-Nitro-2-(3-phenylpropylamino)-benzoic acid]", "EC50": 4300}]}]}
